The values that follow come from patent publication US20240166649A1, “DIHYDROPYRIMIDINE COMPOUND, PREPARATION METHOD THEREFOR AND APPLICATION THEREOF” (Shanghai Visonpharma Co., Ltd., priority 2021, published 2024).

Read-outs that look alike come from different tables or passages of the source.

In series [1] the test system is HBV (hepatitis B virus) in HepG2.2.15 cells. Nature of the series: Cell-based anti-viral activity assay (HBV DNA in supernatant by quantitative PCR). Particulars: 120 h, anti-HBV activity, HepG2.2.15 cells, 5 days, read-out: EC50 (HepG2.2.15). In outline:
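HepG2.2.15 cells (stably carrying HBV genome) treated with 3.16-fold compound dilutions, final 1% DMSO, for 5 days at 37 °C. Supernatant HBV DNA quantified by qPCR against a standard curve; % inhibition normalised to DMSO and high-concentration reference compound wells.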

Series [2] is described as follows: Cytotoxicity assay (CellTiter Glo). The format is cell-based. Particulars: human; HepG2.2.15 cells, five days post treatment. How it is done:
The Invention Determined Cytotoxicity of the Compounds Against HepG2.2.15 Cells (Table 2)
HepG2.2.15 cells were seeded into 96-well plates (8000 cells per well) and cell viability was measured by the addition of 60 μL of CellTiter Glo reagent (Promega) five days post treatment with the compounds. Cell plates with CellTiter Glo added were shaken on a plate shaker for 20 min and then the chemiluminescence signal was stabilized at room temperature for 10 min. Chemiluminescence values were read using a microplate reader (Bio-TeK SYNERGY NEO2).
The concentration corresponding to 50% cytotoxicity (CC50) was fitted by graphpad prism software. The cytotoxicity was calculated by the formula: % Cytotoxicity=100−(chemiluminescence value of sample Well −average chemiluminescence value of blank medium column)/(average chemiluminescence value of DMSO column −average chemiluminescence value of blank medium column)*100

Series [3] in a line: Pharmacokinetics (PK) evaluation in mice. The format is in vivo. To be noted: ICR mice, po 10 mg/kg. On the procedure:
Pharmacokinetics (PK) Evaluation in Mice Test compounds were administered to ICR mice by gavage (po). The po dose was 10 mg/kg, and the vehicle formulation was 10% DMSO+40% PEG400+50% Saline (0.9% saline). Animals were fasted overnight (10-14 h) before administration and fed 4 h after administration. Blood was collected into heparin sodium anticoagulated tubes at multiple time points (0.5, 1, 3, 5 hours) after administration. Mice were euthanized with CO2 and livers were collected at multiple time points (0.5, 1, 3,5 h). The drug concentrations in plasma and liver were analyzed by LC-MS/MS method. Phenix WinNonlin was used to calculate the pharmacokinetic parameters.

As to `CCOC(=O)C1=C(CN2CCN3C(=O)N(C45CC(CC(=O)O)(C4)C5)C[C@@H]3C2)NC(c2nccs2)=N[C@H]1c1cccc(F)c1C` [Compound 22, 2-(3-((S)-7-(((S)-5-(Ethoxycarbonyl)-6-(3-Fluoro-2-Methylphenyl)-2-(Thiazol-2-Yl)-3,6-Dihydropyrimidin-4-Yl)Methyl)-3-Oxohexahydroimidazo[1,5-a]Pyrazin-2(3H)-Yl)Bicyclo[1.1.1]Pentan-1-Yl)Acetic Acid], the EC50 in series [1] was 0.007 µM. Further, the CC50 at 5 days in series [2] was above 50 µM. Moreover, in series [3], the “Liver AUC(0→t)” value stood at 231116 ng·h/g. Moreover, the “Liver Cmax” value in series [3] is 102141 ng/g. Besides, the Kp at 0.5 h in series [3] (mouse, liver/plasma, 0.5 hour, read-out: Liver/Plasma ratio) came out at 120. Moreover, the Kp at 1 h in series [3] (mouse, liver/plasma, 1 hour, read-out: Liver/Plasma ratio) worked out at 115. Further, the Kp at 3 h in series [3] (mouse, liver/plasma, 3 hour, read-out: Liver/Plasma ratio) is 137. Besides, in series [3] (mouse, liver/plasma, 5 hour, read-out: Liver/Plasma ratio), the Kp at 5 h came to 297. Further, the concentration at 0.5 h in series [3] (mouse, liver, 0.5 hour, read-out: Liver drug conc.) was 102000 ng/g; in series [3] (mouse, plasma, 0.5 hour, read-out: Plasm drug conc.) it was 849 ng/mL. Besides, the concentration at 1 h in series [3] (mouse, liver, 1 hour, read-out: Liver drug conc.) amounted to 94800 ng/g; in series [3] (mouse, plasma, 1 hour, read-out: Plasm drug conc.), 826 ng/mL. The concentration at 3 h in series [3] (mouse, liver, 3 hour, read-out: Liver drug conc.) was 24700 ng/g; in series [3] (mouse, plasma, 3 hour, read-out: Plasm drug conc.), 180 ng/mL. For the same compound, the concentration at 5 h in series [3] (mouse, liver, 5 hour, read-out: Liver drug conc.) is 12200 ng/g; in series [3] (mouse, plasma, 5 hour, read-out: Plasm drug conc.), 41 ng/mL. The same compound had an AUC(0-t) in series [3] (mouse, plasma) of 1860 ng·h/mL. The peak concentration (Cmax) in series [3] (mouse, plasma) turned out to be 849 ng/mL.
For `CCOC(=O)C1=C(CN2CCN3C(=O)N(C45CC(COC)(C4)C5)C[C@@H]3[C@H]2C(=O)O)NC(c2nccs2)=N[C@H]1c1cccc(F)c1C` [Compound 47, (8S,8aR)-7-(((S)-5-(Ethoxycarbonyl)-6-(3-Fluoro-2-Methylphenyl)-2-(Thiazol-2-Yl)-3,6-Dihydropyrimidin-4-Yl)Methyl)-2-(3-(Methoxymethyl)Bicyclo[1.1.1]Pentan-1-Yl)-3-Oxooctahydroimidazo[1,5-a]Pyrazine-8-Carboxylic Acid], the EC50 in series [1] came out at 0.018 µM. The 50% cytotoxic concentration (CC50) at 5 days in series [2] is above 50 µM.
On the same counts, the results for `CCOC(=O)C1=C(CN2CCN3C(=O)N(C45CC(COC)(C4)C5)C[C@@H]3[C@@H]2C(=O)O)NC(c2nccs2)=N[C@H]1c1cccc(F)c1C` [Compound 48, (8R,8aR)-7-(((S)-5-(Ethoxycarbonyl)-6-(3-Fluoro-2-Methylphenyl)-2-(Thiazol-2-Yl)-3,6-Dihydropyrimidin-4-Yl)Methyl)-2-(3-(Methoxymethyl)Bicyclo[1.1.1]Pentan-1-Yl)-3-Oxooctahydroimidazo[1,5-a]Pyrazine-8-Carboxylic Acid] are 0.015 µM and above 50 µM.
On the same counts, the results for `CCOC(=O)C1=C(CN2CCN3C(=O)N(C45CC(N(C)CC(=O)O)(C4)C5)C[C@@H]3C2)NC(c2nccs2)=N[C@H]1c1cccc(F)c1C` [Compound 49, N-(3-((S)-7-(((S)-5-(Ethoxycarbonyl)-6-(3-Fluoro-2-Methylphenyl)-2-(Thiazol-2-Yl)-3,6-Dihydropyrimidin-4-Yl)Methyl)-3-Oxohexahydroimidazo[1,5-a]Pyrazin-2(3H)-Yl)Bicyclo[1.1.1]Pentan-1-Yl)-N-Methylglycine] are 0.017 µM and above 50 µM.
In the case of `CCOC(=O)C1=C(CN2CCN3C(=O)N(C45CCC(C(=O)O)(CC4)CC5)C[C@@H]3C2)NC(c2nccs2)=N[C@H]1c1cccc(F)c1C` [Compound 52, 4-((S)-7-(((S)-5-(Ethoxycarbonyl)-6-(3-Fluoro-2-Methylphenyl)-2-(Thiazol-2-Yl)-3,6-Dihydropyrimidin-4-Yl)Methyl)-3-Oxohexahydroimidazo[1,5-a]Pyrazin-2(3H)-Yl)Bicyclo[2.2.2]Octane-1-Carboxylic Acid], the 50% effective concentration (EC50) in series [1] came to 0.003 µM. Also, the CC50 at 5 days in series [2] is above 50 µM.
Taken in the same sequence, the figures for `CCOC(=O)C1=C(CN2CCN3C(=O)N(C45CCC(C(=O)O)(CC4)CC5)C[C@@H]3C2)NC(c2nccs2)=N[C@H]1c1ccc(F)cc1C` [Compound 53, 4-((S)-7-(((S)-5-(Ethoxycarbonyl)-6-(4-Fluoro-2-Methylphenyl)-2-(Thiazol-2-Yl)-3,6-Dihydropyrimidin-4-Yl)Methyl)-3-Oxohexahydroimidazo[1,5-a]Pyrazin-2(3H)-Yl)Bicyclo[2.2.2]Octane-1-Carboxylic Acid] were 0.009 µM and above 50 µM.
On the same counts, the results for `CCOC(=O)C1=C(CN2CCN3C(=O)N(C45CCC(C(=O)O)(CC4)CC5)C[C@@H]3C2)NC(c2nccs2)=N[C@H]1c1ccc(F)cc1Cl` [Compound 55, 4-((S)-7-(((R)-6-(2-Chloro-4-Fluorophenyl)-5-(Ethoxycarbonyl)-2-(Thiazol-2-Yl)-3,6-Dihydropyrimidin-4-Yl)Methyl)-3-Oxohexahydroimidazo[1,5-a]Pyrazin-2(3H)-Yl)Bicyclo[2.2.2]Octane-1-Carboxylic Acid] are 0.002 µM and above 50 µM.
Taken in the same sequence, the figures for `CCOC(=O)C1=C(CN2CCN3C(=O)N(C45CCC(C(=O)O)(C4)C5)C[C@@H]3C2)NC(c2nccs2)=N[C@H]1c1cccc(F)c1C` [Compound 56, 4-((S)-7-(((S)-5-(Ethoxycarbonyl)-6-(3-Fluoro-2-Methylphenyl)-2-(Thiazol-2-Yl)-3,6-Dihydropyrimidin-4-Yl)Methyl)-3-Oxohexahydroimidazo[1,5-a]Pyrazin-2(3H)-Yl)Bicyclo[2.1.1]Hexane-1-Carboxylic Acid] were 0.016 µM and above 50 µM.
On to `CCOC(=O)C1=C(CN2CCN3C(=O)N(C45CCC(C(=O)O)(C4)C5)C[C@@H]3C2)NC(c2nccs2)=N[C@H]1c1ccc(F)cc1Cl` [Compound 57, 4-((S)-7-(((R)-6-(2-Chloro-4-Fluorophenyl)-5-(Ethoxycarbonyl)-2-(Thiazol-2-Yl)-3,6-Dihydropyrimidin-4-Yl)Methyl)-3-Oxohexahydroimidazo[1,5-a]Pyrazin-2(3H)-Yl)Bicyclo[2.1.1]Hexane-1-Carboxylic Acid], for which, in series [1], the EC50 amounted to 0.012 µM. The 50% cytotoxic concentration (CC50) at 5 days in series [2] was above 50 µM.
Taken in the same sequence, the figures for `CCOC(=O)C1=C(CN2CCN3C(=O)N(C45CCC(C(=O)O)(CC4)C5)C[C@@H]3C2)NC(c2nccs2)=N[C@H]1c1cccc(F)c1C` [Compound 59, 4-((S)-7-(((S)-5-(Ethoxycarbonyl)-6-(3-Fluoro-2-Methylphenyl)-2-(Thiazol-2-Yl)-3,6-Dihydropyrimidin-4-Yl)Methyl)-3-Oxohexahydroimidazo[1,5-a]Pyrazin-2(3H)-Yl)Bicyclo[2.2.1]Heptane-1-Carboxylic Acid] were 0.012 µM and above 50 µM.
On the same counts, the results for `CCOC(=O)C1=C(CN2CCN3C(=O)N(C45CCC(C(=O)O)(CC4)C5)C[C@@H]3C2)NC(c2nccs2)=N[C@H]1c1ccc(F)cc1Cl` [Compound 60, 4-((S)-7-(((R)-6-(2-Chloro-4-Fluorophenyl)-5-(Ethoxycarbonyl)-2-(Thiazol-2-Yl)-3,6-Dihydropyrimidin-4-Yl)Methyl)-3-Oxohexahydroimidazo[1,5-a]Pyrazin-2(3H)-Yl)Bicyclo[2.2.1]Heptane-1-Carboxylic Acid] are 0.009 µM and above 50 µM.
Taken in the same sequence, the figures for `CCOC(=O)C1=C(CN2CCN3C(=O)N(C45C6C7C4C4C5C6C74C(=O)O)C[C@@H]3C2)NC(c2nccs2)=N[C@H]1c1cccc(F)c1C` (stereo partly shown) [Compound 61] were 0.017 µM and above 50 µM.
